From US20240285727A1, “NOVEL THERAPEUTIC PEPTIDES FOR NEURODEGENERATION” (UNIVERSITY OF SOUTHERN CALIFORNIA, priority 2021, published 2024) come the findings set out here.

Ends that are not written are not given here.

Sequences and labels used below:
B1: SHMOOSE (Small Human Mitochondrial Open reading frame Over the SErine-tRNA) peptide (peptide)
peptide: MPPCLTTWLSQLLKDNSYPLVLGPKNFGATPNKSNNHAHYYNHPNPDFPNSPHPYHPR
notes: Endogenous SHMOOSE in Western blots is treated as the same molecule; also called wild type SHMOOSE; synthetic SHMOOSE

ATP5A1, sequence (P25705 44-553 limits assumed): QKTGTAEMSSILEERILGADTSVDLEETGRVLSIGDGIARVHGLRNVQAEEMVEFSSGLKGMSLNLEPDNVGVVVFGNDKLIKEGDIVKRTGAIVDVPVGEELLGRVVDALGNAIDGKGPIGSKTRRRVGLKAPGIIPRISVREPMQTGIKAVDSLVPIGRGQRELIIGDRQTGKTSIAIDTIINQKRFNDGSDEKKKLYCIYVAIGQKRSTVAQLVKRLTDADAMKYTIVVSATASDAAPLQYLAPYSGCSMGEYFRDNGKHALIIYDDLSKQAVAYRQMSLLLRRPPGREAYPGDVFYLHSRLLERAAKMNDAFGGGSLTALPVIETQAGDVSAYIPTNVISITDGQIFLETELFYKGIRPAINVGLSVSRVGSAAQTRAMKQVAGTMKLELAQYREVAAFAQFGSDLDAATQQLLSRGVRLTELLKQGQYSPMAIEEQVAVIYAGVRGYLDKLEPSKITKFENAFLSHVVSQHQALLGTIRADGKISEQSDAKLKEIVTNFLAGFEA

The subject of one data set is SHSY5Y. The experiment in a line: Analogue screening assay, measured by MTT. In kind it is cell-based. The conditions noted are these: as a percentage compared to SHMOOSE (SHMOOSE activity as 100%). From the text: FIG. 10 depicts an analogue screening assay, measured by MTT. Top: each bar represents a fragment (25-amino acid in length) of SHMOOSE. Bottom: each bar represents a phosphomimetic fragment (25-amino acid in length) of SHMOOSE. Cell model is SHSY5Y. The Inventors made 103 analogues/derivatives (see Table 1).
The Inventors made 103 analogues (Table 1). Referring to FIG. 10, in the top figure, each bar represents a 25-amino acid fragment of the SHMOOSE peptide. […] The sequence length of the analogue is 14 amino acids and 3 different analysis windows of the analogue, each having 11 amino acids, were characterized. […]
On to “72 (NFGADPNKDNNHAHDDNHPNPDFPN) [compound 72]”, for which the “% Efficacy” value is recorded as −28.57%.
“73 (FGADPNKDNNHAHDDNHPNPDFPND) [compound 73]”: the “% Efficacy” value was −306.02%.
On the same count and under the same terms, next, “74 (GADPNKDNNHAHDDNHPNPDFPNDP) [compound 74]”: −228.29%; “75 (ADPNKDNNHAHDDNHPNPDFPNDPH) [compound 75]”: −157.10%; “76 (DPNKDNNHAHDDNHPNPDFPNDPHP) [compound 76]”: −184.63%.
Still for that read-out and setting: then “78 (NKDNNHAHDDNHPNPDFPNDPHPDH) [compound 78]”, with −240.90%.
The same measure, in the same setting: then “79 (KDNNHAHDDNHPNPDFPNDPHPDHP) [compound 79]”, with −183.31%.
Take “80 (DNNHAHDDNHPNPDFPNDPHPDHPR) [compound 80]”: the “% Efficacy” value is on record as −214.13%.
The same measure, in the same setting: next, “81 (GPKNFGADPNKDNNHAHDDNHPNPN) [compound 81]”: −172.67%; “82 (PKNFGADPNKDNNHAHDDNHPNPNF) [compound 82]”: −146.18%; “84 (NFGADPNKDNNHAHDDNHPNPNFPN) [compound 84]”: −84.90%.
On the same count and under the same terms, next, “85 (FGADPNKDNNHAHDDNHPNPNFPND) [compound 85]”: −476.83%; “86 (GADPNKDNNHAHDDNHPNPNFPNDP) [compound 86]”: −62.75%; “88 (DPNKDNNHAHDDNHPNPNFPNDPHP) [compound 88]”: −84.19%.
As for “90 (NKDNNHAHDDNHPNPNFPNDPHPDH) [compound 90]”, the “% Efficacy” value is −226.81%.
Regarding “91 (KDNNHAHDDNHPNPNFPNDPHPDHP) [compound 91]”, the “% Efficacy” value is listed as −104.32%.
Still for that read-out and setting: next, “92 (DNNHAHDDNHPNPNFPNDPHPDHPR) [compound 92]”: −85.47%; “97 (MPPCITTWLSQLLKDNSYPLVLGPKNFGATPNKSNNHAHYYNHPNPDFPNSPHPYHPR) [compound 97]”: −1.709%; “98 (MPPCITTWISQLLKDNSYPLVLGPKNFGATPNKSNNHAHYYNHPNPDFPNSPHPYHPR) [compound 98]”: 1.709%.
As to “99 (MPPCITTWISQILKDNSYPLVLGPKNFGATPNKSNNHAHYYNHPNPDFPNSPHPYHPR) [compound 99]”, the “% Efficacy” value is recorded as −7.692%.
On the same count and under the same terms, then “100 (MPPCITTWISQIIKDNSYPLVLGPKNFGATPNKSNNHAHYYNHPNPDFPNSPHPYHPR) [compound 100]”, with 4.274%; and “101 (MPPCLTTWISQIIKDNSYPLVLGPKNFGATPNKSNNHAHYYNHPNPDFPNSPHPYHPR) [compound 101]”, with −10.26%.
Still for that read-out and setting: next, “102 (MPPCLTTWLSQIIKDNSYPLVLGPKNFGATPNKSNNHAHYYNHPNPDFPNSPHPYHPR) [compound 102]”: −25.64%; “103 (MPPCLTTWLSQLIKDNSYPLVLGPKNFGATPNKSNNHAHYYNHPNPDFPNSPHPYHPR) [compound 103]”: 86.32%; “104 (MPSCLTTWLSQLLKDNSYPLVLGPKNFGATPNKSNNHAHYYNHPNPDFPNSPHPYHPR) [compound 104]”: 82.05%.
The same measure, in the same setting: then “105 (MPSCLTTWLSSLLKDNSYPLVLGPKNFGATPNKSNNHAHYYNHPNPDFPNSPHPYHPR) [compound 105]”, with 44.44%; and “106 (MPSCLTTWLSSLLSDNSYPLVLGPKNFGATPNKSNNHAHYYNHPNPDFPNSPHPYHPR) [compound 106]”, with −14.53%.
Regarding “107 (MPSCLTTWISSIISDNSYPLVLGPKNFGATPNKSNNHAHYYNHPNPDFPNSPHPYHPR) [compound 107]”, the “% Efficacy” value amounted to 134.2%.

Another data set deals with C57BL/6J mice fed a high fat diet. The experiment in a line: SHMOOSE in vivo: daily IP injections to mice fed a high fat diet, two weeks. Further details: species or system mouse.
Settings: not given
An excerpt:
The inventors also injected SHMOOSE intraperitoneally (IP) to 12-week-old C57BL/6J mice fed a high fat diet (i.e., a mild metabolic perturbation). At the conclusion of the two-week study, the inventors harvested brain and liver for RNA-Seq. As the inventors observed for SHMOOSE.D47N carriers and in in vitro experiments, 367 differentially expressed genes under a p adjusted value of 0.05 enriched mitochondrial and ribosomal terms in the liver (FIG. 3C). That is, liver expression differences were observed after SHMOOSE IP injections. Brain hypothalamus expression differences were also observed after SHMOOSE IP injections. Further, cortical expression differences were observed after SHMOOSE IP injections. However, while the inventors observed global gene expression changes as illustrated by PCA in the mouse cortex and hypothalamus, most enriched terms included central nervous system-related terms, not ribosomes nor mitochondrial specifics (FIG. 17). Furthermore, brain hippocampus expression differences were observed after SHMOOSE IP injections.
To examine the transcriptomes of mice treated with SHMOOSE, 12-week-old male […] mice were obtained from The Jackson Laboratory. Mice were fed a high fat diet for 10 days (60% total calories) prior to initiation of SHMOOSE daily IP injections (2.5 mg/kg). No more than 60 ul of volume were injected IP. […]
With “MPPCLTTWLSQLLKDNSYPLVLGPKNFGATPNKSNNHAHYYNHPNPDFPNSPHPYHPR [SHMOOSE]”, the “toxic effects and behavior changes” value is “did not display toxic effects nor behavior changes”.

System in another data set: not listed separately
The experiment in a line: SHMOOSE pharmacokinetics after intraperitoneal injection. In kind it is in vivo, mouse. The conditions noted are these: IP injected mice. On the procedure: SHMOOSE pharmacokinetics was studied, where 2.5 mg SHMOOSE/kg in 25-week old C57/BI6 mice were intraperitoneally injected.
For the molecule “MPPCLTTWLSQLLKDNSYPLVLGPKNFGATPNKSNNHAHYYNHPNPDFPNSPHPYHPR [SHMOOSE]”, the entry into circulation result is “goes into the blood stream” and the half-life entry is “strong half-life”.

The next data set addresses ATP5A1 (UniProt P25705 44-553, limits assumed). The experiment in a line: binding of SHMOOSE to ATP5 subunits (FIG. 9C/9D); method not described.
Settings: not given
Take B1: the binding result is on record as “no binding”.

Another data set concerns the molecule itself. Description: Western blot of subcellular fractions of SHMOOSE-treated SH-SY5Y cells (FIG. 4A).
Settings: not given
On the procedure: Cytosolic, nuclear, and mitochondrial fractions were prepared from cultured SH-SY5Y cells. To extract nuclei, cells were washed in ice-cold DPBS and resuspended in fractionation buffer containing 10 mM HEPES pH 7.6, 3 mM MgCl2, 10 mM KCl, 5% (v/v) glycerol, 1% Triton-X100, and protease/phosphatase inhibitors for 15 minutes, followed by centrifugation for 5 minutes at 250×g and 4° C. The resulting supernatant was further centrifuged once more at 18,000×g for 10 minutes at 4° C. to obtain a relatively pure cytoplasmic fraction. The original pellet prior to the 18,000×g centrifugation was washed in 10 mM HEPES pH 7.6, 1.5 mM MgCl2, 10 mM KCl, and protease/phosphatase inhibitors and centrifuged at 250×g and 4° C. The washed pellet was then resuspended in nuclear extraction buffer containing 20 mM HEPES pH 7.6, 1.5 mM MgCl2, 420 mM NaCl, 25% (v/v) glycerol, 0.2 mM EDTA, and protease/phosphatase inhibitors, followed by three sonication periods of 5 seconds (separated by 10 seconds) with 30% amplitude on ice. The sonicated pellet was centrifuged at 18,000×g for 10 minutes at 4° C. to obtain a relatively pure nuclear lysate. To extract mitochondria, cells were washed in ice-cold DPBS and resuspended in 2 ml hypotonic buffer containing 10 mM NaCl, 1.5 mM MgCl2, and 10 mM Tris-HCl pH 7.5 for 7.5 minutes. […]
As to B1, the binding result is on record as “binds”.
